Results: patent publication US11858879B2, “PARG inhibitors and method of use thereof” (City of Hope, priority 2017, dated 2024)

Target: T1, PARG (Homo sapiens, UniProt Q86W56)
T1 construct: Recombinant full length PARG protein is generated from Sf9 insect cells; made in house; host or cells: Sf9 insect cells
Experiment: PAR digestion assay (dot blotting with anti-PAR antibody)
Format: biochemical
Settings: PARG incubated with PAR for 20 min at room temperature with or without inhibitors, dot blot with anti-PAR antibody
Protocol: Development of potent and cell-permeant PARG inhibitors via multi-step virtual screening and hierarchical selection. Forty candidates from National Cancer Institute (NCI) were selected to examine the efficacy of PARG inhibition by dot blot assay. PARG was incubated with PAR for 20 min at room temperature with or without inhibitors. PAR-digestion results were analyzed using dot blotting with anti-PAR antibody. […] PC and NC mean positive control (PAR only) and negative control (no inhibitor), respectively. IC50 value of compound 34 was measured by dot blotting with anti-PAR antibody in a dose course of compound 34.
PAR digestion assay: Recombinant PARG protein were incubated with PAR (10 μM, calculated as the ADP-ribose unit) and DMSO (Negative control, NC) or small molecules for 20 minutes at room temperature. Positive control (PC) only contains PAR in PBS. Samples were spotted onto a nitrocellulose membrane. The membrane was blocked with TBST buffer (0.15 M NaCl, 0.01 M Tris-HCl at pH 7.4, 0.1% Tween 20) supplemented with 5% milk and extensively washed with TBST. The membrane was examined by anti-PAR antibody.
Recombinant full length PARG protein is generated from Sf9 insect cells. Recombinant PAR is purified from a biochemical assay using PARP1. PARG is incubated with PAR in the presence of DMSO (Negative control, NC) or small chemical compounds for 20 minutes at room temperature. […]

T1 sequence (Q86W56 whole entry): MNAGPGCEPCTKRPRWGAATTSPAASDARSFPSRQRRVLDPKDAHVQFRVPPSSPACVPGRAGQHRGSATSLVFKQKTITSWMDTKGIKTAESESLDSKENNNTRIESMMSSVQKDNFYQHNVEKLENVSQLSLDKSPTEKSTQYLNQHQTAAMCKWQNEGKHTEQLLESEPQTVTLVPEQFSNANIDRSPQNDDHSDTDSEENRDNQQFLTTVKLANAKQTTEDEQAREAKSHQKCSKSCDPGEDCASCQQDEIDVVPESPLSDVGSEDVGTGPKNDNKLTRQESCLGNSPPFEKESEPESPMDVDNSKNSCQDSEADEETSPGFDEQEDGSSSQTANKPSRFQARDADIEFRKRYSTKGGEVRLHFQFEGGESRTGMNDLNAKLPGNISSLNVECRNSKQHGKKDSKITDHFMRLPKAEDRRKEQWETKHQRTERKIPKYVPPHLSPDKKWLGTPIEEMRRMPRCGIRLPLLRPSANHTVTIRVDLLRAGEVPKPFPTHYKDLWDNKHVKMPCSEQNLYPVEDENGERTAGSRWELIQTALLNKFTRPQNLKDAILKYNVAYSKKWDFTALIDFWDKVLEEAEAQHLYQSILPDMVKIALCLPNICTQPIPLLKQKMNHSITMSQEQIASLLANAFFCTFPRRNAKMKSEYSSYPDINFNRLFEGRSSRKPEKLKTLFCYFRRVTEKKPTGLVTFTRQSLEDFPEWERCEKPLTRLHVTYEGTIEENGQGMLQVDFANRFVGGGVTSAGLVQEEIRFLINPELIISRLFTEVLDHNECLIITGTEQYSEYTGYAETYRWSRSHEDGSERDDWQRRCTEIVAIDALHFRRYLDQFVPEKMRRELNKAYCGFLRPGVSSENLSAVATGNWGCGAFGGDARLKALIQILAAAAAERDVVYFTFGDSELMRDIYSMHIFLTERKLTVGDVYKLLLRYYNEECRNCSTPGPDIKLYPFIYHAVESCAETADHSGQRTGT

Cc1ccc(S/N=C/c2c(O)ccc3ccccc23)cc1 [Compound 34]
inhibitory activity for PARG: inhibitory activity
inhibitory activity for PARG (listed as #34): good inhibitory activity
